Results on seven compounds are retold here after patent US20150119373A1, “NOVEL BETULINIC ACID DERIVATIVES AS HIV INHIBITORS” (HETERO RESEARCH FOUNDATION, priority 2012, published 2015).

The test system of data set [1] is HIV-1 strain 92HT599. Kind of data set: Antiviral activity: p24 estimation in MT2 cells infected with HIV-1 strain 92HT599. The class given is cell-based. The note with it: for inhibition at 0.1 µM: read-out: Antiviral activity % inhibition 100 nM; for inhibition at 1 µM: read-out: Antiviral activity % inhibition 1000 nM. In a few lines: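 Infection of MT2 cells used 10 TCID50/30000 cells, with compound present at ≤1% DMSO for ~96 h. p24 in well aliquots was quantified by kit. Percent inhibition is relative to vehicle controls.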

Data set [2] is described as follows: Cyto-toxicity assay (MTT) in MT2 cells without virus. The class given is cell-based. The conditions noted are these: human. How it is done:
For cyto-toxicity assay the same amount of MT2 cells as in antiviral assay without virus was added to the 96 well plates. The cyto-toxicity was measured using MTT reagent in parallel with p24 estimation. The percent viability is calculated in comparison with vehicle control.

A short description of data set [3]: Single dose oral pharmacokinetic study in mice. The class given is in vivo. The conditions noted are these: for AUC(0-inf) / Cmax / Tmax / AUC(0-t): mouse, plasma. In a few lines:
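Mice or rats dosed orally at 30 mg/kg in a suitable vehicle (10 ml/kg). Retro-orbital blood on K3 EDTA at defined time points under light ether anaesthesia; plasma analysed by LC-MS-MS.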

[4] abbreviates: Human immunodeficiency virus 1, 100 nM, MT2 cells, HIV-1 92HT599, ~96 hours, p24.
The mark [5] stands for this setting: Human immunodeficiency virus 1, 1000 nM, MT2 cells, HIV-1 92HT599, ~96 hours, p24.
Where [6] appears, read: Oral PK @ 30 mg/ kg dose in mice (Table 6).
Setting [7] is: Oral PK @ 30 mg/ kg dose in mice (Table 6), read-out: AUCt.
Where [8] appears, read: Human immunodeficiency virus 1, MT2, 96 h.
The mark [9] stands for this setting: 100 nM, MT2 cells, MTT, read-out: Cytotoxicity % viability 100 nM.
The mark [10] stands for this setting: 1000 nM, MT2 cells, MTT, read-out: Cytotoxicity % viability 1000 nM.
Where [11] appears, read: Mice oral PK @30 mg/kg (Table 5).

Where two headings read alike, the source gives them in different places.

In general, inhibition refers to the percentage by which the read-out fell short of the control. Broadly, the viability is the share of living cells, or the viability signal relative to a control. Usually AUC(0-inf) stands for the area under the concentration-time curve extrapolated to infinity. A low value points to low exposure. Broadly, the Cmax is the highest concentration seen after dosing. As a reminder, the Tmax is the time at which the peak concentration occurs. Consider `CC1([C@@H]2CC[C@]3(C(=O)N4CCC(C(=O)NCCN5CCOCC5)CC4)CC[C@]4(C)[C@H](CC[C@@H]5[C@@]6(C)CC[C@H](OC(=O)[C@H]7C[C@@H](C(=O)O)C7(C)C)C(C)(C)[C@@H]6CC[C@]54C)[C@@H]23)CC1` [Example 50, (1R,3S)-2,2-dimethyl-3-((((1R,3aS,5aR,5bR,7aR,9S,11aR,11bR,13aR,13bR)-5a,5b,8,8,11a-pentamethyl-1-(1-methylcyclopropyl)-3a-(4-((2-morpholinoethyl)carbamoyl)piperidine-1-carbonyl)icosahydro-1H-cyclopenta[a]chrysen-9-yl)oxy)carbonyl)cyclobutane-1-carboxylic acid], for which, in data set [1] (setting [4]), the inhibition at 0.1 µM was 99%. The inhibition at 1 µM in data set [1] (setting [5]) was 99%. In data set [2], this compound showed a viability at 100 nM of 86% and a viability at 1000 nM of 96%. In data set [3] (setting [6]), the Tlast came out at 48 h, the AUC(0-inf) stood at 171 µg·h/mL, the Cmax is 9100 ng/mL and the Tmax stood at 6 h. Also, in data set [3] (setting [7]), the AUC(0-t) was 164 µg·h/mL.
As for `COCCOC1CCN(C(=O)[C@]23CC[C@@H](C4(C)CC4)[C@@H]2[C@H]2CC[C@@H]4[C@@]5(C)CC[C@H](OC(=O)[C@H]6C[C@@H](C(=O)O)C6(C)C)C(C)(C)[C@@H]5CC[C@@]4(C)[C@]2(C)CC3)CC1` [Example 42, (1R,3S)-3-((((1R,3aS,5aR,5bR,7aR,9S,11aR,11bR,13aR,13bR)-3a-(4-(2-methoxyethoxyl)piperidine-1-carbonyl)-5a,5b,8,8,8,11a-pentamethyl-1-(1-methylcyclopropyl)icosahydro-1H-cyclopenta[a]chrysen-9-yl)oxy)carbonyl)-2,2-dimethylcyclobutane-1-carboxylic acid], in data set [1] (setting [8]), the inhibition at 0.1 µM was 94% and the inhibition at 1 µM was 99%. Besides, the viability at 100 nM in data set [2] (setting [9]) came out at 86%. The viability at 1000 nM in data set [2] (setting [10]) worked out at 84%. Besides, in data set [3] (setting [6]), the Tlast is 48 h, the highest level (Cmax) was 7400 ng/mL and the time of peak concentration (Tmax) was 32 h. Also, the AUC(0-t) in data set [3] (setting [7]) was 300 µg·h/mL.
For `COC1CCN(C(=O)[C@]23CC[C@@H](C4(C)CC4)[C@@H]2[C@H]2CC[C@@H]4[C@@]5(C)CC[C@H](OC(=O)[C@H]6C[C@@H](C(=O)O)C6(C)C)C(C)(C)[C@@H]5CC[C@@]4(C)[C@]2(C)CC3)CC1` [Example 29], in data set [1] (setting [8]), the inhibition at 0.1 µM was 95% and the inhibition at 1 µM is 99%. Also, the viability at 100 nM in data set [2] (setting [9]) came to 81%. The viability at 1000 nM in data set [2] (setting [10]) worked out at 77%. In data set [3] (setting [6]), the Tlast amounted to 48 h, the Cmax amounted to 11700 ng/mL and the Tmax came to 16 h. Besides, the AUC(0-t) in data set [3] (setting [7]) amounted to 428 µg·h/mL.
In the case of `CC(C)(CC(=O)O[C@H]1CC[C@]2(C)[C@H]3CC[C@@H]4[C@H]5[C@H](C6(C)CC6)CC[C@]5(C(=O)N5CCN(CCN6CCOCC6)CC5)CC[C@@]4(C)[C@]3(C)CC[C@H]2C1(C)C)C(=O)O` [Example 31, 2,2-dimethyl-4-oxo-4-(((1R,3aS,5aR,5bR,7aR,9S,11aR,11bR,13aR,13bR)-5a,5b,8,8,11a-pentamethyl-1-(1-methylcyclopropyl)-3a-(4-(2-morpholinoethyl)piperazine-1-carbonyl)icosahydro-1H-cyclopenta[a]chrysen-9-yl)oxy)butanoic acid], the inhibition at 0.1 µM in data set [1] (setting [4]) was 99%. The inhibition at 1 µM in data set [1] (setting [5]) was 99%. In data set [2], this compound displayed a viability at 100 nM of 100% and a viability at 1000 nM of 95%. For the same compound, in data set [3] (setting [6]), the Tlast came out at 48 h, the AUC(0-inf) was 240 µg·h/mL, the Cmax was found to be 9200 ng/mL and the Tmax stood at 6.5 h. In addition, the AUC(0-t) in data set [3] (setting [7]) came out at 214 µg·h/mL.
With `[2H]C([2H])([2H])C(CC(=O)O[C@H]1CC[C@]2(C)[C@H]3CC[C@@H]4[C@H]5[C@H](C6(C)CC6)CC[C@]5(C(=O)N[C@@H]5C[C@H](C(=O)N6CCCCC6)C5(C)C)CC[C@@]4(C)[C@]3(C)CC[C@H]2C1(C)C)(C(=O)O)C([2H])([2H])[2H]` [Example 22, 4-(((1R,3aS,5aR,5bR,7aR,9S,11aR,11bR,13aR,13bR)-3a-(((1R,3S)-2,2-dimethyl-3-(piperidine-1-carbonyl)cyclobutyl)carbamoyl)-5a,5b,8,8,11a-pentamethyl-1-(1-methylcyclopropyl)icosahydro-1H-cyclopenta[a]chrysen-9-yl)oxy)-2,2-bis(methyl-d3)-4-oxobutanoic acid], the inhibition at 0.1 µM in data set [1] (setting [4]) was 100%. In addition, the inhibition at 1 µM in data set [1] (setting [5]) was 100%. In data set [2], the viability at 100 nM amounted to 100% and the viability at 1000 nM stood at 87%. Moreover, in data set [3] (setting [6]), the Tlast stood at 24 h, the AUC(0-inf) is 79 µg·h/mL, the Cmax was determined as 10200 ng/mL and the Tmax came out at 1.8 h. For the same compound, the AUC(0-t) in data set [3] (setting [7]) turned out to be 63.9 µg·h/mL.
In the case of `CC(C)(CC(=O)O[C@H]1CC[C@]2(C)[C@H]3CC[C@@H]4[C@H]5[C@H]([C@]6(C)CO6)CC[C@]5(C(=O)N[C@@H]5C[C@H](C(=O)N6CCCCC6)C5(C)C)CC[C@@]4(C)[C@]3(C)CC[C@H]2C1(C)C)C(=O)O` [Example 14, 4-((1R,3aS,5aR,5bR,7aR,9S,11aR,11bR,13aR,13bS)-3a-((1R,3S)-2,2-dimethyl-3-(piperidine-1-carbonyl)cyclobutylcarbamoyl)-5a,5b,8,8,11a-pentamethyl-1-(2-methyloxiran-2-yl)icosa hydro-1H-cyclopenta[a]chrysen-9-yloxy)-2,2-dimethyl-4-oxobutanoicacid], the inhibition at 0.1 µM in data set [1] (setting [4]) is 100%. Besides, in data set [1] (setting [5]), the inhibition at 1 µM was 100%. Besides, in data set [2], the viability at 100 nM amounted to 86% and the viability at 1000 nM came to 88%. Besides, in data set [3] (setting [11]), the Cmax was 4450 ng/mL and the Tmax turned out to be 0.63 h. Also, in data set [3] (Mice oral PK @30 mg/kg (Table 5), read-out: AUC 0-t), the AUC(0-t) was 15.2 µg·h/mL.
As to `CC(C)(CC(=O)O[C@H]1CC[C@]2(C)[C@H]3CC[C@@H]4[C@H]5[C@H](C6(C)CC6)CC[C@]5(C(=O)N5CCC(C#N)(c6ccccc6)CC5)CC[C@@]4(C)[C@]3(C)CC[C@H]2C1(C)C)C(=O)O` [Example 56, 4-((1R,3aS,5aR,5bR,7aR,9S,11aR,11bR,13aR,13bR)-3a-(4-cyano-4-phenylpiperidine-1-carbonyl)-5a,5b,8,8,11a-pentamethyl-1-(1-methylcyclopropyl)icosahydro-1H-cyclopenta[a]chrysen-9-yloxy)-2,2-dimethyl-4-oxobutanoic acid], the inhibition at 0.1 µM in data set [1] (setting [4]) was 76%. In addition, the inhibition at 1 µM in data set [1] (setting [5]) was 99%. In data set [2], this compound yielded a viability at 100 nM of 83% and a viability at 1000 nM of 80%. Moreover, in data set [3] (setting [6]), the Tlast was 24 h, the AUC(0-inf) was 185 µg·h/mL, the Cmax was 5900 ng/mL and the Tmax is 7 h. In data set [3] (setting [7]), the AUC(0-t) was determined as 95.5 µg·h/mL.
